Data taken from US20130023504A1, “Modulation of Prostaglandin/Cyclooxygenase Metabolic Pathways” (HUNTER-FLEMING LIMITED, priority 2006, published 2013).
Values joined by “and” are separate entries in the source; they are usually repeats but may differ in a detail not shown here. Equal entries are not always repeated.

Assays:
Format in all cases: cell-based
[1] = system: PC-12 cells; assay: Ischaemia (oxygen-glucose deprivation)-induced cell death in NGF-differentiated PC-12 cells, Trypan Blue exclusion; conditions: for decrease in cell death: vs. ischemia alone
Description: PC-12 cells were maintained on flasks coated with Collagen typel in PC-12 media with the following composition; RPMI 1640 without L-glutamine with 2 mM L-glutamine, 10 mM HEPES, 1 mM Sodium Pyruvate, additional glucose to give a final concentration of 4.5 g/L (RPMI normally has 2 g/L), 10% heat inactivated horse serum, 5% foetal calf serum and 50 units of penicillin/streptomycin. Media was changed every 2 days.
Confluent cultures of PC-12 cells were differentiated by culturing for 7 days in PC-12 medium without serum but with 50 ng/mlNGF (PC-12 NGF media). The cells were harvested, washed, counted and 1×10^5 PC-12 cells/well were plated overnight in a micro titre plate in glucose free PC-12 NGF medium. The medium was then changed to glucose-free PC-12 NGF medium containing the compounds to be tested and the plates left under normoxic conditions for 30 minutes.
During this stage, the media and test substances for the anoxic exposure were placed in a chamber and de-oxygenated with 95% N2/5% CO2. The media in the plates was changed with the de-oxygenated media and the plates then placed in an anaerobic chamber gassed with 95% N2 5% CO2 for 10 minutes before being sealed and incubated at 37° C. overnight (18 hours). For normoxia controls, the cells were treated identically to ischemic treatments except that all incubations were in 5% CO2/95% air.
Viability was determined using Trypan Blue exclusion.

[2] = system: rat sensory neurones; assay: Cisplatin-induced neuronal cell death, number of cell bodies per field in dorsal root ganglia sensory neurones (anti MAP-2); conditions: 10 ng/ml, cisplatin 3 μg/ml
Description: (§1) Primary cultures of dissociated dorsal root ganglia sensory neurones were incubated with 3 μg/ml cisplatin, with and without 7β-OH EPIA for 48 hours and 72 hours and the following parameters were evaluated:
neurone cell bodies stained with an anti MAP 2 antibody (microtubule associated protein 2)
(§2) Rat sensory neurones were prepared according to the method described by Hall et al 1997 [Hall et al. (J. Neurosci. 1997 Apr. 15; 17(8); 2775-84]. Briefly, a female rat (15 days gestation) was killed by cervical dislocation (Rats Wistar; Janvier, Le Genest-St-lsle, France) and the foetuses removed from the uterus. Their spinal cords with the dorsal root ganglia (DRG) were removed and placed in ice-cold medium of Leibovitz (L15, Fisher 11415-049) containing Penicillin 50 UI/ml-Streptomycin 50 μg/ml (PS, 1%) and bovine serum albuminutes (BSA 1%, Sigma A6003). The DRG were recovered and dissociated by trypsinisation for 20 minutes at 37° C. (trypsin EDTA 10×, 10%, Fisher 15400054) diluted in PBS without calcium and magnesium (Fisher 2007-03). The reaction was stopped by addition of Dulbecco modified Eagle medium (DMEM, Fisher 21969-035) containing DNase I grade II (0.1 mg/ml Roche diagnostic 104159) and foetal bovine serum (FBS 10%, Fisher 10270-098). The cell suspension was triturated with a 10 ml pipette and centrifuged at 350×g for 10 minutes at room temperature. The pellet of dissociated cells was then resuspended in defined culture medium.
(§3) Viable cells were counted in a Neubauer cytometer using the trypan blue exclusion test (Sigma) and seeded at a density of 30 000 cells/well in 96 well-plates (Nunc). Wells were pre-coated with poly-L-lysine (10 μg/ml, Sigma P2636) in ultra pure sterile water (Merck Eurolab 60759.01).
(§4) Cells were allowed to adhere for 2 h and maintained in a humidified incubator at 37° C. in 5% CO2/95% air atmosphere.
(§5) After 5 days of culture, the culture medium was changed into a defined culture medium following the different conditions described below:
(§6) Test compound 7β-OH EPIA (1 nM, 10 nM and 100 nM)+cisplatin (3 μg/ml)
(§7) Reference compound NGF (10 ng/ml)+cisplatin (3 μg/ml)
(§8) Six wells per condition were carried out to assess neuronal survival. After 48 hours and 72 hours of incubation, the neuronal cells were fixed for 5 minutes in an ethanol/acetic acid solution (95%/5%) at −20° C. and rinsed 3 times in PBS.
(§9) Cell bodies of sensory neurones were labelled by monoclonal anti MAP-2 antibody (Sigma M4403) and the neurite of sensory neurones were labelled by monoclonal β-Tubulin antibody (Sigma T8660). These antibodies were diluted at 1:400 in incubation solution (PBS with 5% of FCS and 0.1% of saponin, Sigma S-7900). These antibodies specifically label neurone cell bodies and neuritis, respectively.
(§10) After 2 hours of incubation, the cells were washed in PBS and incubated with Alexa Fluor 488 goat anti mouse IgG (Molecular Probes A11001) diluted at 1:300 in incubation solution to reveal the MAP-2 and the β-Tubulin antibodies. Cell nuclei were stained with a fluorescent marker (Hoechst staining solution, SIGMA H6024, 1 μg/ml in incubation solution during 1 hour).
(§11) For each condition, 2 pictures per well (12 pictures per condition) were taken using In Cell Analyzer 1000 (Amersham Biosciences) controlled by the computer software In Cell Analyzer 1000 3.2. For the MAP-2 labelling, the magnification was ×10, for the β-Tubulin labelling, the magnification was ×20. For each labelling, all the images were taken in the same conditions.
(§12) Analysis of the number of cell bodies labelled with anti-MAP-2 antibodies, and total length of neurites labelled with anti β-Tubulin antibodies, were carried out using In Cell Analyzer 1000 3.2.Workstation software. The results were expressed in percentage compared to the vehicle. The comparisons of each group were carried out using the unpaired T test.

[3] = system: rat sensory neurones; assay: Cisplatin-induced loss of neurite density in primary dorsal root ganglia sensory neurones (anti β-Tubulin); conditions: 10 ng/ml, cisplatin 3 μg/ml
Description: as §1
neurite network density stained with an anti 8-Tubulin antibody
as §2, §3, §4, §5, §6, §7, §8, §9, §10, §11, §12

[4] = system: rat sensory neurones; assay: Neurite growth of sensory neurones in primary culture (anti β-Tubulin, In Cell Analyzer)
Description: Rat sensory neurones were prepared according to the method described by Hall et al. 1997 (Hall A K, Ai X, Hickman G E, MacPhedran S E, Nduaguba C O, Robertson C P. The generation of neuronal heterogeneity in a rat sensory ganglion. J. Neurosci. 1997 Apr. 15; 17(8):2775-84). Briefly, female rats (15 days gestation) were killed by cervical dislocation (Rats Wistar; Janvier, Le Genest-St-Isle, France) and the foetuses removed from the uterus. Their spinal cords with the dorsal root ganglia (DRG) were removed and placed in ice-cold medium of Leibovitz (L15, Fisher 11415-049) containing Penicillin 50 Ul/ml-Streptomycin 50 pg/ml (PS, 1%) and bovine serum albuminutes (BSA 1%, Sigma A6003). The DRG were recovered and dissociated by trypsinisation for 20 minutes at 37° C. (trypsin EDTA 10×, 10%, Fisher 15400054) diluted in PBS without calcium and magnesium (Fisher 2007-03). The reaction was stopped by addition of Dulbecco modified Eagle medium (DMEM, Fisher 21969-035) containing DNase I grade II (0.1 mg/ml Roche diagnostic 104159) and foetal bovine serum (FBS 10%, Fisher 10270-098). The cell suspension was triturated with a 10 ml pipette and centrifuged at 350×g for 10 minutes at room temperature. The pellet of dissociated cells was then resuspended in defined culture medium.
Viable cells were counted in a Neubauer cytometer using the trypan blue exclusion test (Sigma) and seeded at a density of 25 000 cells/well in 96 well-plates (Nunc). Wells were pre-coated with poly-L-lysine (10 μg/ml, Sigma P2636) in ultra pure sterile water (Merck Eurolab 60759.01).
Cells were allowed to adhere for 2 hours and maintained in a humidified incubator at 37° C. in 5% CO2/95% air atmosphere.
The culture medium was changed into a defined culture medium after a 12 hours incubation period following the conditions described below:
NGF 50 ng/ml and 10 ng/ml (in 0.1% DMSO)
After 6 hours, 12 hours and 24 hours of incubation with 7β-OH EPIA, cells were fixed for 5 minutes in an ethanol/acetic acid solution (95%/5%) at −20° C. and rinsed 3 times in PBS.
Motor neurones and sensory neurones were labelled by monoclonal anti β-Tubulin antibody (Sigma T8660) diluted at 1:400 in incubation solution (PBS with 5% of FCS and 0.1% of saponin, Sigma S-7900). This antibody specifically labels neurone cell bodies and neurites.
After 2 hours of incubation, the cells were washed in PBS and incubated with Alexa Fluor 488 goat anti mouse IgG (Molecular Probes A11001) diluted at 1:300 in incubation solution to reveal the 8-Tubulin III antibodies.
Analysis of the total length of neurones labelled with anti β-Tubulin antibodies (neurones) were carried out using In Cell Analyzer 1000 3.2.Workstation software.
The results were expressed in percentage compared to the vehicle. Comparison of groups was carried out using the unpaired T test.

## COc1ccc2c(c1)c(CC(=O)O)c(C)n2C(=O)c1ccc(Cl)cc1 [Indomethacin]
[1]; 10 μM indomethacin with 1 μM and 10 μM 7β-OH-EPIA
  antagonism of the protective effect of 7β-OH-EPIA: fully antagonised
[1]; 10 μM
  decrease in cell death: no direct effect
[1]; 100 μM
  decrease in cell death: 29%

## C[C@]12N[C@H](Cc3ccccc31)c1ccccc12 [MK801]
[1]; 10 μM
  decrease in cell death: 62% and 42%

## NGF: Nerve Growth Factor, a specific growth factor for sensory neurones; reference compound
[2]; 48 hours
  % Control without cisplatin (cell bodies): 96%
  number of cell bodies per field, Average: 58.33
[2]; 72 hours
  % Control without cisplatin (cell bodies): 1.2%
  number of cell bodies per field, Average: 54.92
[3]; 48 hours
  % Control without cisplatin (neurite length): 117%
  Mean neurite length: 6362.44 μm
[3]; 72 hours
  % Control without cisplatin (neurite length): 113%
  Mean neurite length: 6000.30 μm
[4]; 10 ng/ml, 6 hours
  Neurites length per field, % Vehicle: 191%
  Neurites length per field, Mean: 195.2 μm
[4]; 10 ng/ml, 12 hours
  Neurites length per field, % Vehicle: 128%
  Neurites length per field, Mean: 381.3 μm
[4]; 10 ng/ml, 24 hours
  Neurites length per field, % Vehicle: 371%
  Neurites length per field, Mean: 819.9 μm
[4]; 50 ng/ml, 6 hours
  Neurites length per field, % Vehicle: 273%
  Neurites length per field, Mean: 279.1 μm
[4]; 50 ng/ml, 12 hours
  Neurites length per field, % Vehicle: 216%
  Neurites length per field, Mean: 644.3 μm
[4]; 50 ng/ml, 24 hours
  Neurites length per field, % Vehicle: 309%
  Neurites length per field, Mean: 682.1 μm
